# From article PMC7408072 (Pharmaceutics, 2020)
# System: bovine BCEC monolayers co-cultured with rat astrocytes
# Test: Transport and cell uptake of 3-5 kDa FITC-dextran in the presence of peptide (bovine model)
# Assay type: cell-based
# Conditions: 1 mg/mL FITC-dextran with 100 µM peptide, luminal, 3 h, abluminal FITC fluorescence; N = 3, n = 3
# Description: Transport across bovine or mouse BCEC monolayers co-cultured with rat astrocytes was carried out over 3 h at 37 °C with horizontal shaking (90 rpm). TEER was measured at room temperature using an Endohm 12 cup (World Precision Instruments, Sarasota, FL, USA) connected to a Millicell-ERS device (Millipore, Bedford, MA, USA). TEER was measured before application of the peptides and after each experiment. The bovine model had initial TEER values ranging from 771 to 1332 Ω·cm^2, whereas the mouse model had initial TEER values ranging from 136 to 217 Ω·cm^2.
# FITC fluorescence was measured using a NovoStar fluorescence plate reader (BMG Labtech, Offenburg, Germany) with excitation/emission set to 494/518 nm. […] The filters were washed with PBS thrice for 5 min, mounted on glass slides under coverslips using Immu-Mount™ mounting media (Thermo Fischer Scientific, Bedford, MA, USA), and imaged using single wavelength excitation on a Leica SP2 laser-scanning confocal microscope (Leica Microsystems, Wetzlar, Germany).
structure (smiles),measurement,value
CC[C@H](C)[C@H](NC(=O)CCOCCOCCN(CCOCCOCCC(=O)N[C@H](C(=O)N[C@@H](CCC(=O)O)C(=O)N[C@H](C(=O)N[C@@H](CC(=O)O)C(=O)N[C@H](C(=O)O)C(C)C)[C@@H](C)O)[C@@H](C)CC)C(=O)[C@H](CCCNC(=N)N)NC(=O)[C@H](CCCNC(=N)N)NC(=O)[C@H](CCCNC(=N)N)NC(=O)[C@H](CCC(N)=O)NC(=O)[C@H](CCCNC(=N)N)NC(=O)[C@H](CCCNC(=N)N)NC(=O)[C@H](CCCCN)NC(=O)[C@H](CCCCN)NC(=O)[C@H](CCCNC(=N)N)NC(=O)CNC(=O)[C@H](Cc1ccc(O)cc1)NC(=O)c1ccc2c(c1)C(=O)OC21c2ccc(N(C)C)cc2Oc2cc(N(C)C)ccc21)C(=O)N[C@@H](CCC(=O)O)C(=O)N[C@H](C(=O)N[C@@H](CC(=O)O)C(=O)N[C@H](C(=O)O)C(C)C)[C@@H](C)O [TAMRA-Tat-N-dimer],"transendothelial permeation of 3-5 kDa FITC-dextran applied with peptide, compared to FITC-dextran alone",did not increase
